Source: the kinase profiling compilation of Christmann-Franck et al. (2016)
Values joined by “and” are separate entries in the source; they are usually repeats but may differ in a detail not shown here. Identical values can stand only once.

Assays:
Test in all cases: radiometric filter-binding kinase assay, Kinase HotSpot
Conditions in all cases: compound 0.5 µM; ATP 10 µM
[1] = molecular target: PRKCE (human) (UniProt Q02156)
[2] = molecular target: MAPKAPK2 (human) (UniProt P49137)
[3] = molecular target: DYRK4 (human) (UniProt Q9NR20)
[4] = molecular target: STK10 (human) (UniProt O94804)
Chain of STK10 (human) (O94804 whole entry, looked up): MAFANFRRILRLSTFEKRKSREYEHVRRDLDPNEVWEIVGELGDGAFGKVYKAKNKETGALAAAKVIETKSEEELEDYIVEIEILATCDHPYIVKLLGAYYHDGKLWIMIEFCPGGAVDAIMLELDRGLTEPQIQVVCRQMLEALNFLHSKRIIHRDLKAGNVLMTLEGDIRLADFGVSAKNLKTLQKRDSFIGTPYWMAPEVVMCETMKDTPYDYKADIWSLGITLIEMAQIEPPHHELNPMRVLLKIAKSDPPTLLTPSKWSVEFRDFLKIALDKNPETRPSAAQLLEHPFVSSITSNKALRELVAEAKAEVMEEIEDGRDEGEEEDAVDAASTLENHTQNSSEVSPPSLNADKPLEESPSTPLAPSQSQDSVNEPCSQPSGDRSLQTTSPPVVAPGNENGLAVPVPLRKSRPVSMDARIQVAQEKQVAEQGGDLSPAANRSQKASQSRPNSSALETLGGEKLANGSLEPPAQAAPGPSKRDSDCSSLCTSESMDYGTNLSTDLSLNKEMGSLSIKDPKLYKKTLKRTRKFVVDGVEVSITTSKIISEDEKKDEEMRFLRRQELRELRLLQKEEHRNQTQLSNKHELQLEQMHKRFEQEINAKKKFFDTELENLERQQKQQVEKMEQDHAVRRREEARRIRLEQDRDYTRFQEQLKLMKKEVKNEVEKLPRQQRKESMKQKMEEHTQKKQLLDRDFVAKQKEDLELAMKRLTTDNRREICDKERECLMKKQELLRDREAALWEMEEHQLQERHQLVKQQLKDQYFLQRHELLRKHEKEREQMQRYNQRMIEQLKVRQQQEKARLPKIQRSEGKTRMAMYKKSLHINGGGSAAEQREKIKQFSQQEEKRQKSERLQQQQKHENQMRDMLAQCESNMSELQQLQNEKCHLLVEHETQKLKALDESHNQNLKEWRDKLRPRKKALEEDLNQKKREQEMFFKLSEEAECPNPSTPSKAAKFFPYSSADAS

[5] = molecular target: LCK (human) (UniProt P06239)
[6] = molecular target: STK39 (human) (UniProt Q9UEW8)
[7] = molecular target: PRKCB1 (human) (UniProt P05771)
Chain of PRKCB1 (human) (P05771 whole entry, looked up): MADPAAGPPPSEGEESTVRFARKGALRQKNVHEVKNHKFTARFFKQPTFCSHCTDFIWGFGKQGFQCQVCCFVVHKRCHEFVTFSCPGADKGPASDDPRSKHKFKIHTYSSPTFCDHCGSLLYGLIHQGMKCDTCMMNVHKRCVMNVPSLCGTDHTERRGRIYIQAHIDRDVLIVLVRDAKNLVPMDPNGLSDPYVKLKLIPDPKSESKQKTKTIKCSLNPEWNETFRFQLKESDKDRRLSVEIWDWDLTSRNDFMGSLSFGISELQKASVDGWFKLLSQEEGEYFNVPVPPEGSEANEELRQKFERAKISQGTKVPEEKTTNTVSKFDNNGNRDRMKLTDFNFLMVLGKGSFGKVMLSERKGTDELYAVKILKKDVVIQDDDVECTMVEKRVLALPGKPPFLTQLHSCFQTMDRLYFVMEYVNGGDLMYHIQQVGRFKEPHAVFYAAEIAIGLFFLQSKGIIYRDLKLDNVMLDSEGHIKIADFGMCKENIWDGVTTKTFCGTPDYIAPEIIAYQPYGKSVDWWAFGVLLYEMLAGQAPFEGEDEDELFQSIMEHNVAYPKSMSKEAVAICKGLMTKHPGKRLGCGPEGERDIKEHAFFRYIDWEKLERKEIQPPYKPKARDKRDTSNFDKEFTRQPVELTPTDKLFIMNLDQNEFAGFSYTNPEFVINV

[8] = molecular target: MAP3K11 (human) (UniProt Q16584)
[9] = molecular target: LYN (human) (UniProt P07948)
Chain of LYN (human) (P07948 whole entry, looked up): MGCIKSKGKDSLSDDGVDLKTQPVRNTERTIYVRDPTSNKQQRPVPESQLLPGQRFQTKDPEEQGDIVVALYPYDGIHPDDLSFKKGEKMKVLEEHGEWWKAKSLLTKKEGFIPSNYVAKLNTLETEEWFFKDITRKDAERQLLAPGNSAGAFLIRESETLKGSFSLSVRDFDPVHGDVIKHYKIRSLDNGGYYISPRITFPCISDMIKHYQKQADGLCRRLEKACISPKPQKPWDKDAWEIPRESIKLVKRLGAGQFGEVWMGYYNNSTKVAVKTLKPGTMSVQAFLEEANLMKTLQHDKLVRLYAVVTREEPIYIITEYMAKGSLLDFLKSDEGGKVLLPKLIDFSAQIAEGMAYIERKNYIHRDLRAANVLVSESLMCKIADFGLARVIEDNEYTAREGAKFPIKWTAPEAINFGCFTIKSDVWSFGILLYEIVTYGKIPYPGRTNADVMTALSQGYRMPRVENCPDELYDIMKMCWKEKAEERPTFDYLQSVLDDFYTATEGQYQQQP

[10] = molecular target: JAK2 JH1 JH2 (human) (UniProt O60674)
[11] = molecular target: CDK1 CCNB1 (human) (UniProt P06493+P14635)
[12] = molecular target: EPHA4 (human) (UniProt P54764)
[13] = molecular target: PHKG2 (human) (UniProt P15735)
[14] = molecular target: LRRK2 (human) (UniProt Q5S007)
[15] = molecular target: PKN1 (human) (UniProt Q16512)
[16] = molecular target: TXK (human) (UniProt P42681)
[17] = molecular target: CDK2 CCNE1 (human) (UniProt P24941+P24864)
Chain of CDK2 CCNE1 (human) (P24864 whole entry, looked up, other chains not shown): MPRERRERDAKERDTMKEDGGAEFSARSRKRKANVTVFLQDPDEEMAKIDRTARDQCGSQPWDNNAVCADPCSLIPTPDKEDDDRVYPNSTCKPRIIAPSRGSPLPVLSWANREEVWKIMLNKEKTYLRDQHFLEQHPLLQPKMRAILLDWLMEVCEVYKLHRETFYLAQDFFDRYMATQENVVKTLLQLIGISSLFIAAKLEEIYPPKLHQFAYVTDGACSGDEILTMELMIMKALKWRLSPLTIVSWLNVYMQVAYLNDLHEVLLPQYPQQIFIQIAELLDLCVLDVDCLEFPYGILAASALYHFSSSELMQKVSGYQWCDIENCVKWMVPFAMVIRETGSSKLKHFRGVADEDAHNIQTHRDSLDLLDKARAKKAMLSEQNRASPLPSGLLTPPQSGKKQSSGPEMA

[18] = molecular target: MAP3K10 (human) (UniProt Q02779)
Chain of MAP3K10 (human) (Q02779 whole entry, looked up): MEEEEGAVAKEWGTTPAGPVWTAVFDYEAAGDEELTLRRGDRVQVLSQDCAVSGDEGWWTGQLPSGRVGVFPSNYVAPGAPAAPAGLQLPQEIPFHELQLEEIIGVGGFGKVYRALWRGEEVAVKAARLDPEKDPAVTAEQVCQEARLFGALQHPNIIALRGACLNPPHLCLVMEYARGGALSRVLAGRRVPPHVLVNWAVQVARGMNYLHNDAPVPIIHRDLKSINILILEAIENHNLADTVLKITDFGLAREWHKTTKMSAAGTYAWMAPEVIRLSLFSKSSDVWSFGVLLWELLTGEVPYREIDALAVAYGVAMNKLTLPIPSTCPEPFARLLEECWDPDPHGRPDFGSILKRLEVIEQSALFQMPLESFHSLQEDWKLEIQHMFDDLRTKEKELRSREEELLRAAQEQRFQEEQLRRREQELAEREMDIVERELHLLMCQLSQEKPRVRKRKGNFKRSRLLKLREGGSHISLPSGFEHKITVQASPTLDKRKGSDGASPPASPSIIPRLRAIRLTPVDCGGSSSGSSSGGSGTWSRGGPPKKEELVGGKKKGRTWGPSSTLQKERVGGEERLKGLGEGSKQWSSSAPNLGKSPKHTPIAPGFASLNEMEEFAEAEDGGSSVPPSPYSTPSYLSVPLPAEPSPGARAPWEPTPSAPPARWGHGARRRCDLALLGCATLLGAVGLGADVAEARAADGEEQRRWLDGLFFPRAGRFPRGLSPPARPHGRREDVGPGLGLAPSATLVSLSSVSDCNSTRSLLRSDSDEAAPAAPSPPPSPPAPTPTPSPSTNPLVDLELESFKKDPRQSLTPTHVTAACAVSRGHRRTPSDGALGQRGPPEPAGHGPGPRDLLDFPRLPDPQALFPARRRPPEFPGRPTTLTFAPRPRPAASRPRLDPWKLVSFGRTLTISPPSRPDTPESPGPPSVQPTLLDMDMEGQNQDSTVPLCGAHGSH

[19] = molecular target: MAP4K5 (human) (UniProt Q9Y4K4)
[20] = molecular target: TGFBR1 (human) (UniProt P36897)
[21] = molecular target: DSTYK (human) (UniProt Q6XUX3)
[22] = molecular target: GSG2 (human) (UniProt Q8TF76)
[23] = molecular target: CDK9 CCNT1 (human) (UniProt P50750+O60563)
[24] = molecular target: PAK2 (human) (UniProt Q13177)
[25] = molecular target: AKT2 (human) (UniProt P31751)
[26] = molecular target: RAF1 (human) (UniProt P04049)
[27] = molecular target: IGF1R (human) (UniProt P08069)
[28] = molecular target: FYN (human) (UniProt P06241)
[29] = molecular target: PDPK1 (human) (UniProt O15530)
[30] = molecular target: TAOK1 (human) (UniProt Q7L7X3)
[31] = molecular target: STK3 (human) (UniProt Q13188)
[32] = molecular target: ZAP70 (human) (UniProt P43403)
[33] = molecular target: PBK (human) (UniProt Q96KB5)
[34] = molecular target: RPS6KA3 KD1 KD2 (human) (UniProt P51812)
[35] = molecular target: LIMK1 (human) (UniProt P53667)
Chain of LIMK1 (human) (P53667 whole entry, looked up): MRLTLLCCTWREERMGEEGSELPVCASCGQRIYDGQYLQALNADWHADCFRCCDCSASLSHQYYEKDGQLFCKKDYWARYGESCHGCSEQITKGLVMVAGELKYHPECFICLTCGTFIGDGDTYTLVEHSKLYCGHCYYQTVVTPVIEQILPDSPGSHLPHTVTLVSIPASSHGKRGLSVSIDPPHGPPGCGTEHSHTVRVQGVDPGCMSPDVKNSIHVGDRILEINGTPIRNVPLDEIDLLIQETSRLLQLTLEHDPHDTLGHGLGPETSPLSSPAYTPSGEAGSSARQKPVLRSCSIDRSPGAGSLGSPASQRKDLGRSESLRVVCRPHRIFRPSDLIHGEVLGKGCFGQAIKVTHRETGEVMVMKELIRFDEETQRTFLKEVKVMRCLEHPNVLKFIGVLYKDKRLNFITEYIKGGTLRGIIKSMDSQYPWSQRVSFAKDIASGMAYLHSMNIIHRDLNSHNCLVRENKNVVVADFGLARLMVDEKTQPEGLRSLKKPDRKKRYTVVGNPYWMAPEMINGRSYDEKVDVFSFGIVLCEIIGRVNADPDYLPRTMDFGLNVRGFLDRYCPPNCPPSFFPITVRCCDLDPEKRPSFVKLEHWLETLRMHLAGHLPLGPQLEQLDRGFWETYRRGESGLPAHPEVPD

[36] = molecular target: ABL1 (human) (UniProt P00519)
[37] = molecular target: WNK3 (human) (UniProt Q9BYP7)
[38] = molecular target: RPS6KA6 KD1 KD2 (human) (UniProt Q9UK32)
[39] = molecular target: ROCK2 (human) (UniProt O75116)
[40] = molecular target: STK11 (human) (UniProt Q15831)
[41] = molecular target: EPHA2 (human) (UniProt P29317)
[42] = molecular target: CSK (human) (UniProt P41240)

Chain of PRKCE (human) (Q02156 whole entry, looked up): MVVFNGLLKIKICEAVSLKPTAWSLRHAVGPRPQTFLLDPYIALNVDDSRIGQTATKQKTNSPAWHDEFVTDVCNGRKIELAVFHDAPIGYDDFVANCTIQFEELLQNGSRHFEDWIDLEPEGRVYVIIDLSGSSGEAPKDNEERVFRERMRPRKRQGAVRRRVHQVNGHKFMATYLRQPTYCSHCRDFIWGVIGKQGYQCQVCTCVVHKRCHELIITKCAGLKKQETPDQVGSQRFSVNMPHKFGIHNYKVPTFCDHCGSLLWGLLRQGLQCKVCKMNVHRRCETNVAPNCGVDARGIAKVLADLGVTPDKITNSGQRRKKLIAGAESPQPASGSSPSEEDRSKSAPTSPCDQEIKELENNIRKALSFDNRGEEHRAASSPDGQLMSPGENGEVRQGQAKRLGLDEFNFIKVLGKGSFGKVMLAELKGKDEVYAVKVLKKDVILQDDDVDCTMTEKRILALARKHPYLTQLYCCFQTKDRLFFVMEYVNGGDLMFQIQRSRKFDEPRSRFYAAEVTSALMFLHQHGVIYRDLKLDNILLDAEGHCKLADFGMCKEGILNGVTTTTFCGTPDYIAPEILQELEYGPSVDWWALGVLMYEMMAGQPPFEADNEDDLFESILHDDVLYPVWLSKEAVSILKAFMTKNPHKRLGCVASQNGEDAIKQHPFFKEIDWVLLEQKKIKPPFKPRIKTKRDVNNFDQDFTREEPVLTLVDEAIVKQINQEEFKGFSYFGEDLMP

Cc1cncc2cccc(S(=O)(=O)N3CCCN(C(=O)CN)C[C@H]3C)c12
residual activity [1]: 52.4% | residual activity [2]: 103% | residual activity [3]: 90.3% | residual activity [4]: 42% | residual activity [5]: 97% | residual activity [6]: 95.3% | residual activity [7]: 99.4% | residual activity [8]: 98.4% | residual activity [9]: 101% | residual activity [10]: 93.9% | residual activity [11]: 96.9% | residual activity [12]: 99.9% | residual activity [13]: 90.5% | residual activity [14]: 54.6% | residual activity [15]: 25.3% | residual activity [16]: 103% | residual activity [17]: 92.3% | residual activity [18]: 105% | residual activity [19]: 103% | residual activity [20]: 100% | residual activity [21]: 105% | residual activity [22]: 99.4% | residual activity [23]: 86.7% | residual activity [24]: 99.7% | residual activity [25]: 97.2% | residual activity [26]: 95.1% | residual activity [27]: 110% | residual activity [28]: 94.2% | residual activity [29]: 97.8% | residual activity [30]: 84.2% | residual activity [31]: 104% | residual activity [32]: 102% | residual activity [33]: 98.6% | residual activity [34]: 91.8% | residual activity [35]: 91.9% | residual activity [36]: 99.3% | residual activity [37]: 97.3% | residual activity [38]: 105% | residual activity [39]: 3.22% | residual activity [40]: 86.5%

COc1ccc(Cl)cc1NC(=O)Nc1cc(C)nc2ccccc12
residual activity [1]: 99.7% | residual activity [2]: 109% | residual activity [3]: 98.9% | residual activity [4]: 90.9% | residual activity [5]: 98.2% | residual activity [6]: 98.5% | residual activity [7]: 105% | residual activity [8]: 89% | residual activity [9]: 111% and 99.2% | residual activity [10]: 99.6% | residual activity [11]: 81.1% | residual activity [12]: 104% | residual activity [13]: 98.6% | residual activity [14]: 98% | residual activity [15]: 104% | residual activity [16]: 98.9% | residual activity [17]: 94.6% | residual activity [18]: 94.9% | residual activity [19]: 100% | residual activity [20]: 99.1% | residual activity [21]: 98.8% | residual activity [22]: 95.7% | residual activity [41]: 100% | residual activity [23]: 98.2% | residual activity [24]: 97.2% | residual activity [25]: 94.9% | residual activity [26]: 94.8% | residual activity [27]: 94.9% | residual activity [28]: 100% | residual activity [29]: 83.9% | residual activity [30]: 103% | residual activity [31]: 98.9% | residual activity [32]: 94.9% | residual activity [33]: 98.5% | residual activity [34]: 96.2% | residual activity [35]: 87.1% | residual activity [42]: 99.9% | residual activity [36]: 99.5% | residual activity [37]: 99.9% | residual activity [39]: 96.7% | residual activity [40]: 103%
